Data on 4 compounds can be found in PMC4322620 (Frontiers in Pharmacology, 2015).

SMILES strings stand for the structures. Where a SMILES comes first, the peptide text is derived from it. [ ]: non-standard residue; d: D form. pGlu = O=C1CC[C@@H](C(=O)O)N1

The target in one assay is NTS1 (HT-29 cells) (Homo sapiens, UniProt P30989). Description: cell-based.
The target in assay [1] is neurotensin receptors (HT-29 cells) (Homo sapiens, UniProt P30989). It is filed as cell-based.
neurotensin receptors (HT-29 cells), sequence (P30989 whole entry, looked up): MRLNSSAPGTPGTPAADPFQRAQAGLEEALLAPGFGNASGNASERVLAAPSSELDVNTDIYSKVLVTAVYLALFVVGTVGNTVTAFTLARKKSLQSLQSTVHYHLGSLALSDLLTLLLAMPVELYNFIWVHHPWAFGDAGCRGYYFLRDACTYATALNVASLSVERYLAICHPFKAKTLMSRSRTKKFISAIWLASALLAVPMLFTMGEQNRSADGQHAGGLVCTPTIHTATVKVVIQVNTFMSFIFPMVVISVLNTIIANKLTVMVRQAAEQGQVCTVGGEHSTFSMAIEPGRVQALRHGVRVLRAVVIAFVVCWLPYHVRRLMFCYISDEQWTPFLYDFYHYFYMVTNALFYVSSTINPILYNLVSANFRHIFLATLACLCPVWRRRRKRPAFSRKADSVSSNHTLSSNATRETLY

NTS1 (HT-29 cells), sequence (P30989 whole entry, looked up): as above

Take `CC[C@H](C)[C@H](NC(=O)[C@H](Cc1ccc(O)cc1)NC(=O)[C@@H]1CCCN1C(=O)[C@H](CCCNC(=N)N)NC(=O)[C@H](CCCNC(=N)N)NC(=O)[C@@H]1CCCN1C(=O)[C@H](CCCCN)NC(=O)[C@H](CC(N)=O)NC(=O)[C@H](C)NC(=O)[C@H](Cc1ccc(O)cc1)NC(=O)[C@H](CC(C)C)NC(=O)[C@@H]1CCC(=O)N1)C(=O)N[C@@H](CC(C)C)C(=O)O` [[A4] NT]: the EC50 at NTS1 (HT-29 cells) came to 0.6 ± 0.1 nM. In assay [1], this compound came in with a DC50 of 11.7 ± 1.4 nM and a DC50/EC50 of 20.

Compound `CC[C@H](C)[C@H](NC(=O)[C@H](Cc1ccc(O)cc1)NC(=O)[C@@H]1CCCN1C(=O)[C@H](CCCNC(=N)N)NC(=O)[C@H](CCCNC(=N)N)NC(=O)[C@@H]1CCCN1C(=O)[C@H](CCC(=O)O)NC(=O)[C@H](CC(N)=O)NC(=O)[C@H](CCC(=O)O)NC(=O)[C@H](Cc1ccc(O)cc1)NC(=O)[C@H](CC(C)C)NC(=O)[C@@H]1CCC(=O)N1)C(=O)N[C@@H](CC(C)C)C(=O)O` [[E6] NT] had an EC50 at NTS1 (HT-29 cells) of 4.7 ± 1.4 nM. For the same compound, in assay [1], the DC50 stood at 57.5 ± 5.9 nM and the DC50/EC50 is 12.

`CC[C@H](C)[C@H](NC(=O)[C@H](Cc1ccc(O)cc1)NC(=O)[C@@H]1CCCN1C(=O)[C@H](CCCNC(=N)N)NC(=O)[C@H](CCCNC(=N)N)NC(=O)[C@@H]1CCCN1C(=O)[C@H](CCCCN)NC(=O)[C@H](CC(N)=O)NC(=O)[C@H](CCCCN)NC(=O)[C@H](Cc1ccc(O)cc1)NC(=O)[C@H](CC(C)C)NC(=O)[C@@H]1CCC(=O)N1)C(=O)N[C@@H](CC(C)C)C(=O)O` [[K4] NT] had an EC50 at NTS1 (HT-29 cells) of 1.4 ± 0.1 nM. In assay [1], this compound came in with a DC50 of 30.5 ± 6.2 nM and a DC50/EC50 of 22.

As to `CC[C@H](C)[C@H](NC(=O)[C@H](Cc1ccc(O)cc1)NC(=O)[C@@H]1CCCN1C(=O)[C@H](CCCCN)NC(=O)[C@H](CCCCN)NC(=O)[C@@H]1CCCN1C(=O)[C@H](CCCCN)NC(=O)[C@H](CC(N)=O)NC(=O)[C@H](CCC(=O)O)NC(=O)[C@H](Cc1ccc(O)cc1)NC(=O)[C@H](CC(C)C)NC(=O)[C@@H]1CCC(=O)N1)C(=O)N[C@@H](CC(C)C)C(=O)O` [[K8, K9] NT] ([pGlu]LYENKPKKPYIL-OH), the EC50 on NTS1 (HT-29 cells) worked out at 20.2 ± 5.2 nM. In assay [1], the DC50 was 67 ± 18.1 nM and the DC50/EC50 was found to be 3.3.
